Measured values: the NIST ThermoML archive (doi:10.1021/je500498m)
Values joined by “and” are separate entries in the source; they are usually repeats but may differ in a detail not shown here. Equal entries are not always repeated. ± gives the expanded uncertainty stated by the source.

Key:
[1] = for speed of sound: 100 kPa, Sing-around technique in a fixed-path interferometer; for speed of sound / viscosity / mass density: Liquid; for viscosity / mass density: 101 kPa; for viscosity: Falling or rolling sphere viscometry; for mass density: Vibrating tube method; for surface tension liquid-gas: 294.4 K, Pendant drop shape
[2] = xn = mol fraction of the nth substance listed; settings: x1 = 1; for speed of sound: 100 kPa, Sing-around technique in a fixed-path interferometer; for speed of sound / viscosity / mass density: Liquid; for viscosity / mass density: 101 kPa; for viscosity: Falling or rolling sphere viscometry; for mass density: Vibrating tube method; for surface tension liquid-gas: 294.4 K, Pendant drop shape

CCc1ccccc1 [ethylbenzene]
[1]
Settings | mass density [kg/m3] | speed of sound [m/s] | viscosity [mPa·s]
293.15 K | 866.95 ± 0.31 | 1339.7 ± 0.7 | 0.67 ± 0.01
303.15 K | 858.15 ± 0.31 | 1298.1 ± 0.7 | 0.59 ± 0.01
313.15 K | 849.29 ± 0.31 | 1256.9 ± 0.7 | –
323.15 K | 840.38 ± 0.31 | 1216.4 ± 0.7 | 0.48 ± 0.01
333.15 K | 831.4 ± 0.32 | 1176.4 ± 0.7 | 0.44 ± 0.01
343.15 K | 822.3 ± 0.3 | – | 0.4 ± 0.01
353.15 K | 813.1 ± 0.3 | – | 0.36 ± 0.01
363.15 K | 803.7 ± 0.3 | – | 0.33 ± 0.01
373.15 K | 794.2 ± 0.3 | – | 0.31 ± 0.01

Settings | surface tension liquid-gas [mN/m]
[1] | 29.2 ± 0.4

CCc1ccccc1 [ethylbenzene] + CCCCCCCCCCCCCCCC
[2]
Settings | mass density [kg/m3] | speed of sound [m/s] | viscosity [mPa·s]
293.15 K | 866.95 ± 0.31 | 1339.7 ± 0.7 | 0.67 ± 0.01
303.15 K | 858.15 ± 0.31 | 1298.1 ± 0.7 | 0.59 ± 0.01
313.15 K | 849.29 ± 0.31 | 1256.9 ± 0.7 | –
323.15 K | 840.38 ± 0.31 | 1216.4 ± 0.7 | 0.48 ± 0.01
333.15 K | 831.4 ± 0.32 | 1176.4 ± 0.7 | 0.44 ± 0.01
343.15 K | 822.3 ± 0.3 | – | 0.4 ± 0.01
353.15 K | 813.1 ± 0.3 | – | 0.36 ± 0.01
363.15 K | 803.7 ± 0.3 | – | 0.33 ± 0.01
373.15 K | 794.2 ± 0.3 | – | 0.31 ± 0.01

Settings | surface tension liquid-gas [mN/m]
[2] | 29.2 ± 0.4

CCCCCCCCCCCCCCCC [hexadecane]
[1]
Settings | mass density [kg/m3] | speed of sound [m/s] | viscosity
293.15 K | 773.49 ± 0.33 | 1357.3 ± 0.9 | 3.44 ± 0.03 mPa·s
303.15 K | 766.55 ± 0.34 | 1320 ± 0.9 | 2.72 ± 0.02 mPa·s
313.15 K | 759.63 ± 0.34 | 1283.3 ± 0.9 | –
323.15 K | 752.71 ± 0.34 | 1247.3 ± 0.9 | 1.82 ± 0.02 mPa·s
333.15 K | 745.79 ± 0.34 | 1212 ± 0.9 | 1.54 ± 0.02 mPa·s and 1.53 ± 0.02 mPa·s
343.15 K | 738.9 ± 0.3 | – | 1.31 ± 0.02 mPa·s
353.15 K | 731.8 ± 0.3 | – | 1.13 ± 0.01 mPa·s
363.15 K | 724.7 ± 0.3 | – | 0.99 ± 0.01 mPa·s
373.15 K | 717.5 ± 0.3 | – | 0.87 ± 0.01 mPa·s

Settings | surface tension liquid-gas [mN/m]
[1] | 27.3 ± 0.4

Cc1ccccc1 [toluene] + CCCCCCCCCCCCCCCC
[2]
Settings | mass density [kg/m3] | speed of sound [m/s] | viscosity [mPa·s]
293.15 K | 866.84 ± 0.31 | 1326.8 ± 0.8 | 0.59 ± 0.01
303.15 K | 857.53 ± 0.31 | 1283.7 ± 0.7 | 0.52 ± 0.01
313.15 K | 848.14 ± 0.32 | 1241.1 ± 0.7 | –
323.15 K | 838.7 ± 0.32 | 1199 ± 0.7 | 0.42 ± 0.01
333.15 K | 829.16 ± 0.32 | 1157.6 ± 0.7 | 0.38 ± 0.01
343.15 K | 819.6 ± 0.3 | – | 0.35 ± 0.01
353.15 K | 809.7 ± 0.3 | – | 0.32 ± 0.01
363.15 K | 799.7 ± 0.3 | – | 0.27 ± 0.01

Settings | surface tension liquid-gas [mN/m]
[2] | 28.4 ± 0.4

Cc1ccccc1 [toluene]
[1]
Settings | mass density [kg/m3] | speed of sound [m/s] | viscosity [mPa·s]
293.15 K | 866.84 ± 0.31 | 1326.8 ± 0.8 | 0.59 ± 0.01
303.15 K | 857.53 ± 0.31 | 1283.7 ± 0.7 | 0.52 ± 0.01
313.15 K | 848.14 ± 0.32 | 1241.1 ± 0.7 | –
323.15 K | 838.7 ± 0.32 | 1199 ± 0.7 | 0.42 ± 0.01
333.15 K | 829.16 ± 0.32 | 1157.6 ± 0.7 | 0.38 ± 0.01
343.15 K | 819.6 ± 0.3 | – | 0.35 ± 0.01
353.15 K | 809.7 ± 0.3 | – | 0.32 ± 0.01
363.15 K | 799.7 ± 0.3 | – | 0.27 ± 0.01

Settings | surface tension liquid-gas [mN/m]
[1] | 28.4 ± 0.4
